For assay [1], the system named is AMARE (Amaranthus retroflexus, redroot pigweed). The assay can be described thus: Postemergence herbicidal activity of mixtures in cereal crops, greenhouse. In kind it is in vivo, Amaranthus retroflexus L. As for the experimental part:
(§1) Seeds of the desired test plant species were planted in Sun Gro MetroMix® 306 planting mixture, which typically has a pH of 6.0 to 6.8 and an organic matter content of about 30 percent, in plastic pots with a surface area of 103.2 square centimeters (cm^2). When required to ensure good germination and healthy plants, a fungicide treatment and/or other chemical or physical treatment was applied. The plants were grown for 7-36 days in a greenhouse with an approximate 14 hour photoperiod which was maintained at about 18° C. during the day and about 17° C. during the night. Nutrients and water were added on a regular basis and supplemental lighting was provided with overhead metal halide 1000-Watt lamps as necessary. The plants were employed for testing when they reached the second or third true leaf stage.
(§2) Treatments consisted of the benzyl ester of 4-amino-3-chloro-5-fluoro-6-(4-chloro-2-fluoro-3-methoxy-phenyl)pyridine-2-carboxylic acid (Compound A), formulated as an SC, a second cereal herbicide alone and then both in combination.
(§3) Other herbicidal components were applied on an active ingredient basis and included PSII-inhibiting herbicides.
(§4) Measured aliquots of benzyl ester of 4-amino-3-chloro-5-fluoro-6-(4-chloro-2-fluoro-3-methoxy-phenyl)pyridine-2-carboxylic acid (Compound A) were placed in 25 milliliter (mL) glass vials and diluted in a volume of 1.25% (v/v) Agri-Dex® crop oil concentrate to obtain stock solutions. Compound requirements are based upon a 12 mL application volume at a rate of 187 liters per hectare (L/ha). Spray solutions of the second cereal herbicide and experimental compound mixtures were prepared by adding the stock solutions to the appropriate amount of dilution solution to form 12 mL spray solution with active ingredients in two- and three-way combinations. Formulated compounds were applied to the plant material with an overhead Mandel track sprayer equipped with an 8002E nozzle calibrated to deliver 187 L/ha over an application area of 0.503 square meters (m^2) at a spray height of 18 inches (46 cm) above average plant canopy. Control plants were sprayed in the same manner with the solvent blank.
(§5) The treated plants and control plants were placed in a greenhouse as described above and watered by sub-irrigation to prevent wash-off of the test compounds. After 20-22 days, the condition of the test plants as compared with that of the control plants was determined visually and scored on a scale of 0 to 100 percent where 0 corresponds to no injury and 100 corresponds to complete kill.
Colby's equation was used to determine the herbicidal effects expected from the mixtures (Colby, S. R. 1967. Calculation of the synergistic and antagonistic response of herbicide combinations. Weeds 15:20-22). […]

Assay [2] concerns VERPE (Veronica persica, Persian speedwell). The assay is described as above. In kind it is in vivo, Veronica persica Poir. As for the experimental part: as §1, §2, §3, §4, §5
Colby's equation was used to determine the herbicidal effects expected from the mixtures (Colby, S. R. 1967. Calculation of the synergistic and antagonistic response of herbicide combinations. Weeds 15:20-22).
The following equation was used to calculate the expected activity of mixtures containing two active ingredients, A and B: Expected=A+B−(A×B/100)

The subject of assay [3] is SETFA (Setaria faberi, giant foxtail). The assay can be described thus: Pre-emergence soil-applied mixtures, greenhouse. In kind it is in vivo, Setaria faberi Herrm. Conditions: for Visual Weed Control (%) Obs: 27 DAA. From the text: Seeds or nutlets of the desired test plant species were planted in a soil matrix prepared by mixing a loam soil (32 percent silt, 23 percent clay, and 45 percent sand, with a pH of about 6.5 and an organic matter content of about 1.9 percent) and calcareous grit in an 80 to 20 ratio. The soil matrix was contained in plastic pots with a volume of 1 quart and a surface area of 83.6 square centimeters (cm^2).
Treatments consisted of the benzyl ester of 4-amino-3-chloro-5-fluoro-6-(4-chloro-2-fluoro-3-methoxy-phenyl)pyridine-2-carboxylic acid (compound A) formulated as an SC (suspension concentrate) and various herbicidal components alone and in combination. Forms of compound A were applied on an acid equivalent basis.
Other herbicidal components were applied on an acid equivalent or active ingredient basis and included the PSII-inhibiting herbicides, atrazine formulated as Atrazine® 90WDG, metribuzin formulated as Metribuzin 75DF, simazine formulated as Princep Caliber 90, tebuthiuron formulated as Spike 80DF, cyanazine (technical grade material), hexazinone (technical grade material), linuron (technical grade material), terbuthylazine (technical grade material), and diuron formulated as Diuron 4L.
Treatment requirements were calculated based upon the rates being tested, the concentration of active ingredient or acid equivalent in the formulation, and a 12 mL application volume at a rate of 187 L/ha.
For treatments comprised of formulated compounds, measured amounts of compounds were placed individually in 25 mL glass vials and diluted in a volume of 1.25% (v/v) Agri-Dex® crop oil concentrate (COC) to obtain 12× stock solutions. […] Application solutions were prepared by adding an appropriate amount of each stock solution (e.g., 1 mL) and diluted to the appropriate final concentrations with the addition of 10 mL of an aqueous mixture of 1.25% (v/v) COC so that the final spray solutions contained 1.25% (v/v) COC.
For treatments comprised of technical compounds, weighed amounts can be placed individually in 25 mL glass vials and dissolved in a volume of 97:3 (v/v) acetone/DMSO to obtain 12× stock solutions. […] Application solutions can be prepared by adding an appropriate amount of each stock solution (e.g., 1 mL) and diluted to the appropriate final concentrations with the addition of 10 mL of an aqueous mixture of 1.5% (v/v) COC so that the final spray solutions contain 1.25% (v/v) COC. When technical materials are used, the concentrated stock solutions can be added to the spray solutions so that the final acetone and DMSO concentrations of the application solutions are 16.2% and 0.5%, respectively.
For treatments comprised of formulated and technical compounds, weighed amounts of the technical materials can be placed individually in 25 mL glass vials and dissolved in a volume of 97:3 (v/v) acetone/DMSO to obtain 12× stock solutions, and measured amounts of the formulated compounds can be placed individually in 25 mL glass vials and diluted in a volume of 1.5% (v/v) COC or water to obtain 12× stock solutions. […] Application solutions can be prepared by adding an appropriate amount of each stock solution (e.g., 1 mL) and diluted to the appropriate final concentrations with the addition of an appropriate amount of an aqueous mixture of 1.5% (v/v) COC so that the final spray solutions contain 1.25% (v/v) COC. As required, additional water and/or 97:3 (v/v) acetone/DMSO can be added to individual application solutions so that the final acetone and DMSO concentrations of the application solutions being compared are 8.1% and 0.25%, respectively.
All stock solutions and applications solutions were visually inspected for compound compatibility prior to application. Spray solutions were applied to the soil with an overhead Mandel track sprayer equipped with a 8002E nozzles calibrated to deliver 187 L/ha over an application area of 0.503 m^2 at a spray height of 18 inches (46 cm) above average pot height. […]

[4] abbreviates: Compound A Benzyl Ester 5 g ai/ha.

Structures are written as SMILES.

Take `COc1c(Cl)ccc(-c2nc(C(=O)OCc3ccccc3)c(Cl)c(N)c2F)c1F` [Compound A Benzyl Ester, benzyl ester of 4-amino-3-chloro-5-fluoro-6-(4-chloro-2-fluoro-3-methoxy-phenyl)pyridine-2-carboxylic acid]: the “Visual Weed Control (%) - 21 DAA AMARE Obs” value in assay [1] (Compound A Benzyl Ester 2.5 g ai/ha) is given as 20%; in assay [1] (setting [4]), 38%. Also, the results for the “Visual Weed Control (%) - 21 DAA VERPE Obs” value in assay [2] (setting [4]) and in assay [2] (Compound A Benzyl Ester 10 g ai/ha) were 17% and 23%, respectively. Also, the “Visual Weed Control (%) Obs” value in assay [3] (16 g ae/ha) was determined as 8%; in assay [3] (32 g ae/ha), 15%. For the same compound, the “Visual Weed Control (%)-29 DAA SETFA Obs” value in assay [3] (Compound A Benzyl Ester 16 g ae/ha) and in assay [3] (Compound A Benzyl Ester 32 g ae/ha) was 0% in each case.

The values are drawn from patent publication US8912121B2, “Herbicidal compositions comprising 4-amino-3-chloro-5-fluoro-6-(4-chloro-2-fluoro-3-methoxyphenyl)pyridine-2-carboxylic acid or a derivative thereof and certain PS II inhibitors” (Dow Agrosciences LLC, priority 2012, dated 2014).
